As usually defined, the Ki is the equilibrium dissociation constant of an inhibitor or competing ligand from its target. High values mean a looser hold on the target, low ones a stronger hold on the target.

Structures are written as SMILES. A value given as a limit tells only on which side of the number the result lay.

Experiment [1] deals with 5-hydroxytryptamine receptor 1B (Homo sapiens, UniProt P28222).
In experiment [2] the target is 5-hydroxytryptamine receptor 1D (Homo sapiens, UniProt P28221).
Sequence of 5-hydroxytryptamine receptor 1D (P28221 whole entry): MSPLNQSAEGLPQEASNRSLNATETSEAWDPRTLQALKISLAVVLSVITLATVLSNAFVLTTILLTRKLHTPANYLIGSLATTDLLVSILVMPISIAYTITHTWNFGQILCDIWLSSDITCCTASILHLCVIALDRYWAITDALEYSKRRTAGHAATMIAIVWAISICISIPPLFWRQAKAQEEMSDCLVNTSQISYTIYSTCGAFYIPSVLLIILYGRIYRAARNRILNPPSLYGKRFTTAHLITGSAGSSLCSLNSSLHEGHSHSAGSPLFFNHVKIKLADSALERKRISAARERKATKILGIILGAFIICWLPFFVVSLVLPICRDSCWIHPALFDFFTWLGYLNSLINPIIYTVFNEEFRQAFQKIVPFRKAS

Sequence of 5-hydroxytryptamine receptor 1B (P28222 whole entry): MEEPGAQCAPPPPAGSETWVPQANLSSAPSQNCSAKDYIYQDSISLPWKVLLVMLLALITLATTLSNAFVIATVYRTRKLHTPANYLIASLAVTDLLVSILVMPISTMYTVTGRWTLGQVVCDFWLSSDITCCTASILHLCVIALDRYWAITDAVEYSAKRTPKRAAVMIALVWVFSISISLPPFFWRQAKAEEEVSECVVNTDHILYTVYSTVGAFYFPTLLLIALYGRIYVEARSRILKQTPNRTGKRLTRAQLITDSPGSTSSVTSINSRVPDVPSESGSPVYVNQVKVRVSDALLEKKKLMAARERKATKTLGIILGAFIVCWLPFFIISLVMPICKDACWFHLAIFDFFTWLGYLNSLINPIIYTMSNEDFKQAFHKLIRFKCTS

As for `Clc1cccc(N2CCNCC2)c1` [mCPP], the Ki came out at 216 nM in experiment [1] and 361 nM in experiment [2].
In the case of `CN1C[C@H](CO)C=C2c3cccc4[nH]cc(c34)C[C@H]21`, the Ki in experiment [1] stood at 0.63 nM; in experiment [2], 1.19 nM.
Regarding `CC(C)NCC(O)COc1cccc2[nH]ccc12` (centres undefined) [LB-46], the values for the Ki in experiment [1] and in experiment [2] were 4100 nM and 4900 nM, respectively.
On to `CCCN(CCC)CCc1c[nH]c2ccc(C(N)=O)cc12` [NN-DIPROP-5-CT], for which the figures for the Ki in experiment [1] and in experiment [2] were 13 nM and 42 nM, respectively.
For `Cc1[nH]c2ccc(O)cc2c1CCN`, the Ki in experiment [1] came out at 915 nM; in experiment [2], 860 nM.
In experiment [2], `c1ccc2c(N3CCNCC3)cccc2c1` had a Ki of 12 nM.
With `c1ccc2nc(N3CCNCC3)ccc2c1` [2-Piperazin-1-yl-quinoline (Quipazine)], the Ki in experiment [1] and in experiment [2] was 1000 nM each time.
Consider `COc1cc(N)c(Cl)cc1C(=O)NC1CN2CCC1CC2` (centres undefined) [ZACOPRIDE,R], for which the inhibition constant Ki in experiment [1] and in experiment [2] was over 10000 nM each time.
For the compound `CC[C@@H](CO)NC(=O)[C@@H]1C=C2c3cccc4c3c(cn4C)C[C@H]2N(C)C1`, the Ki stood at 3.6 nM in experiment [1] and 25 nM in experiment [2].
In the case of `O=C(CCCN1CCC2(CC1)C(=O)NCN2c1ccccc1)c1ccc(F)cc1` [8-[4-(4-fluorophenyl)-4-oxidanylidene-butyl]-1-phenyl-1,3,8-triazaspiro[4.5]decan-4-one], the Ki in experiment [1] is 995 nM; in experiment [2], over 10000 nM.

(Values after BindingDB's records for doi:10.1073/pnas.89.8.3630 (Synaptic Pharmaceutical, 1992).)
